{
  "source": "patent US6169065A",
  "about": "“Method for the activity of an enzyme” (Lever Brothers Company division of Conopco Company, priority 1997, dated 2001)",
  "assay_type_in_all_cases": "biochemical",
  "key": {"[1]": {"target": "T1, Arthromyces ramosus peroxidase (Arthromyces ramosus, UniProt P28313)", "T1 construct": "purchased Sigma P4794", "T1 sequence (P28313 21-364)": "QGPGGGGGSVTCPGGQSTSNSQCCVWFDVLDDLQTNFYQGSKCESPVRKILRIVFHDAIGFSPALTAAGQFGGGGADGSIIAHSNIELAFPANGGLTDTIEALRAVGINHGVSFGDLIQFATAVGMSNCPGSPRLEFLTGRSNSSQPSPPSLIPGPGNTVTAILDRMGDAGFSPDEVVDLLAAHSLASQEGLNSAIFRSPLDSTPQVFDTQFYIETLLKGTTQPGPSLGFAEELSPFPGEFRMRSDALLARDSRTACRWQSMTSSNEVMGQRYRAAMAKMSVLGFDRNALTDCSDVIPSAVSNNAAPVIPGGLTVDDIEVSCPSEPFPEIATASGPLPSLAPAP", "assay": "Oxidation (bleaching) of Direct Red 80 by peroxidase plus enhancer", "conditions": "pH 9, 30 min", "procedure": "The reagents are added, using a pipette, in the following order, to a 1-cm cuvette: aqueous carbonate buffer pH 9 (20 mM), DR80 (60 μM), enhancer (various concentrations) and peroxidase enzyme (Arthromyces ramosus peroxidase from Sigma, P4794); 60 units/ml). The reaction was carried out for 30 minutes at room temperature. The difference in absorbance between t=0 and t=30 min (Δ Abs in Table) is a measure of the enhancing activity of the system tested.\n(§1) Examples 3-7 were repeated using 2-azaPTP, 4-azaPTP and PTP."}, "[2]": {"target": "T1, Arthromyces ramosus peroxidase", "assay": "Oxidation (bleaching) of Reactive Black 5 by peroxidase plus enhancer", "conditions": "for % bleaching / ΔAbs: 590 nm, 25° C., pH 9, 30 min", "procedure": "The oxidation of Reactive Black 5 (RB5) is monitored at 590 nm in a spectrophotometer. […] The reaction was carried out for 30 minutes at room temperature. The difference in absorbance between t=0 and t=30 min (Δ Abs in Table) is a measure of the enhancing activity of the system tested.\nARP [6 u/ml], H2 O2 [250 μM], RB5 [60 μM], Enhancers [100 μM]\nas §1"}, "[3]": {"target": "T1, Arthromyces ramosus peroxidase", "assay": "Oxidation (bleaching) of Direct Green 26 by peroxidase plus enhancer", "conditions": "25° C., pH 9, 30 min", "procedure": "The oxidation of Direct Green 26 (DG26) is monitored at 610 nm in a spectrophotometer. […] The reaction was carried out for 30 minutes at room temperature. The difference in absorbance between t=0 and t=30 min (Δ Abs in Table) is a measure of the enhancing activity of the system tested.\nas §1"}, "[4]": {"target": "T2, laccase (Polyporus pinsitus) (Trametes villosa, UniProt Q99044)", "T2 sequence (Q99044 22-520)": "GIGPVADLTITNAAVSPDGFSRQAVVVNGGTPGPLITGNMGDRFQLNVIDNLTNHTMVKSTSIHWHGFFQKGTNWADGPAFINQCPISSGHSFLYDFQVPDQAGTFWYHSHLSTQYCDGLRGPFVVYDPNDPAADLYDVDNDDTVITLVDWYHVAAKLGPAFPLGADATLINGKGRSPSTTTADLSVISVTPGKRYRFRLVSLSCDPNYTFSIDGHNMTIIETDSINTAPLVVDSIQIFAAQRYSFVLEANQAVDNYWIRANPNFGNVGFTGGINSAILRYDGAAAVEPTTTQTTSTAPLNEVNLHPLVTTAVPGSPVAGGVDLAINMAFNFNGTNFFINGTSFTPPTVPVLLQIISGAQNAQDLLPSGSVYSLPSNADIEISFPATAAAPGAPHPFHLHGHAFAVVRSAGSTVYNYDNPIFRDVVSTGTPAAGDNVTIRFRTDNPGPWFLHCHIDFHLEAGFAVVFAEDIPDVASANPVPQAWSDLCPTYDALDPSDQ", "assay": "Oxidation of Direct Green 26 by laccase plus enhancer", "conditions": "25° C., laccase 30 u/ml, enhancer 67 μM", "procedure": "The oxidation of Direct Green 26 (DG26) is monitored at 605 nm in a spectrophotometer. The reagents are added, using a pipette, in the following order, to a 1-cm cuvette: aqueous tris buffer pH 9 (20 mM) or sodium phosphate buffer pH 6.0 (20 mM), DG26 (67 μM), enhancer (67 μM), and laccase (Polyporus pinsitus, 30 units/ml). The reaction was carried for 3 hours at room temperature. The difference in absorbance between […] and t=3 h is a measure of the enhancing activity of the system tested. DG26 [605 nm]: 25° C., pH 6.0 and 9.0, 3 h. Laccase [30 u/ml], DG26 [67 μM], Enhancers [67 μM]. The values listed are the decrease in absorbance at 605 nm after 3 h."}, "[5]": {"target": "T2, laccase (Polyporus pinsitus)", "assay": "Oxidation of Reactive Black 5 by laccase plus enhancer", "conditions": "for decrease in absorbance after 3 h: 25 C, laccase 30 u/ml, enhancer 67 μM", "procedure": "The laccase activity is measured on a spectrophotometer with 2 mM ABTS in 20 mM sodium phosphate buffer pH 6.0 at 25° C. The oxidation of Reactive Black 5 (RB5) is monitored at 575 nm. The reagents are added, using a pipette, in the following order, to a 1-cm cuvette: aqueous tris buffer pH 9 (20 mM) or sodium phosphate buffer pH 6.0 (20 mM), RB5 (67 μM), enhancer (67 μM), and laccase (Polyporus pinsitus, 30 units/ml). The reaction was carried for 3 hours at room temperature. The difference in absorbance between t=0 and t=3 hours is a measure of the enhancing activity of the system tested. RB5 [575 nm]: 25 C, pH 6.0 and 9.0, 3 h. Laccase [30 u/ml], RB5 [67 μM], Enhancers [67 μM]. The values listed are the decrease in absorbance at […] after 3 h."}, "[6]": {"conditions": "Example 8: DR80, 530 nm, 25° C., ARP 10 u/ml, H2O2 100 μM, dye 60 μM, enhancer 100 μM"}, "[7]": {"conditions": "Example 8: DR80, 530 nm, 25° C., ARP 10 u/ml, H2O2 100 μM, dye 60 μM, enhancer 200 μM"}, "[8]": {"conditions": "Example 8: RB5 60 μM, ARP 10 u/ml, H2O2 100 μM, enhancer 200 μM"}, "[9]": {"conditions": "Example 8: DG26, 610 nm, ARP 10 u/ml, H2O2 100 μM, dye 60 μM, enhancer 200 μM"}, "[10]": {"conditions": "DR80 60 μM, 500 nm, 25C, ARP 60 u/ml, H2O2 250 μM, enhancer 100 μM"}, "[11]": {"conditions": "DR80 60 μM, 500 nm, 25° C., ARP 60 u/ml, H2O2 250 μM, enhancer 10 μM"}, "[12]": {"conditions": "DR80 60 μM, 500 nm, 25° C., ARP 60 u/ml, H2O2 250 μM, enhancer 25 μM"}, "[13]": {"conditions": "DR80 60 μM, 500 nm, 25° C., ARP 60 u/ml, H2O2 250 μM, enhancer 50 μM"}, "[14]": {"conditions": "RB5 60 μM, ARP 6 u/ml, H2O2 250 μM, enhancer 100 μM"}, "[15]": {"conditions": "DG26 60 μM, 610 nm, ARP 60 u/ml, H2O2 250 μM, enhancer 100 μM"}},
  "data": [
    {"smiles": "O=C(O)CCN1c2ccccc2Sc2cnccc21", "note": "[Enhancer 2-aza-PTP, 10-(pyrido[3,4-b][1,4]benzothiazyl)propionic acid]", "values": [
      {"measurement": "% bleaching", "setting": "[1]; [6]", "value": 12, "unit": "%"},
      {"measurement": "% bleaching", "setting": "[1]; [7]", "value": 20, "unit": "%"},
      {"measurement": "% bleaching", "setting": "[2]; [8]", "value": 63, "unit": "%"},
      {"measurement": "% bleaching", "setting": "[3]; [9]", "value": 31, "unit": "%"}
    ]},
    {"smiles": "O=C(O)CCN1c2ccccc2Sc2cccnc21", "note": "[Enhancer 4-aza-PTP, 10-(pyrido[3,2-b][1,4]benzothiazyl)propionic acid]", "values": [
      {"measurement": "% bleaching", "setting": "[1]; [10]", "value": 33, "unit": "%"},
      {"measurement": "ΔAbs", "setting": "[1]; [10]", "value": 0.50},
      {"measurement": "% bleaching", "setting": "[1]; [11]", "value": 60, "unit": "%"},
      {"measurement": "ΔAbs", "setting": "[1]; [11]", "value": 0.98},
      {"measurement": "% bleaching", "setting": "[1]; [12]", "value": 83, "unit": "%"},
      {"measurement": "ΔAbs", "setting": "[1]; [12]", "value": 1.26},
      {"measurement": "% bleaching", "setting": "[1]; [13]", "value": 60, "unit": "%"},
      {"measurement": "ΔAbs", "setting": "[1]; [13]", "value": 0.91},
      {"measurement": "% bleaching", "setting": "[1]; [6]", "value": 18, "unit": "%"},
      {"measurement": "% bleaching", "setting": "[1]; [7]", "value": 10, "unit": "%"},
      {"measurement": "decrease in absorbance at 605 nm after 3 h", "setting": "[4]; pH 6.0, DG26 67 μM", "value": 0.34},
      {"measurement": "decrease in absorbance at 605 nm after 3 h", "setting": "[4]; pH 9.0, DG26 67 μM", "value": 0.30},
      {"measurement": "% bleaching", "setting": "[2]; [8]", "value": 64, "unit": "%"},
      {"measurement": "% bleaching", "setting": "[2]; [14]", "value": 76, "unit": "%"},
      {"measurement": "ΔAbs", "setting": "[2]; [14]", "value": 1.01},
      {"measurement": "enhancing capabilities with peroxidase", "setting": "[2]; summary of Examples 3-5, especially at lower concentrations (Example 5)", "value": "excellent enhancing capabilities"},
      {"measurement": "decrease in absorbance after 3 h", "setting": "[5]; pH 6.0, RB5 67 μM", "value": 0.48},
      {"measurement": "decrease in absorbance after 3 h", "setting": "[5]; pH 9.0, RB5 67 μM", "value": 0.26},
      {"measurement": "enhancing capabilities with laccase", "setting": "[5]; summary of Examples 6-7", "value": "excellent enhancing capabilities"},
      {"measurement": "% bleaching", "setting": "[3]; [15]", "value": 78, "unit": "%"},
      {"measurement": "ΔAbs", "setting": "[3]; [15]", "value": 1.09},
      {"measurement": "% bleaching", "setting": "[3]; [9]", "value": 43, "unit": "%"}
    ]},
    {"smiles": "O=C(O)CCN1c2ccccc2Sc2ccccc21", "note": "[PTP, reference compound]", "values": [
      {"measurement": "% bleaching", "setting": "[1]; [10]", "value": 48, "unit": "%"},
      {"measurement": "ΔAbs", "setting": "[1]; [10]", "value": 0.78},
      {"measurement": "% bleaching", "setting": "[1]; [11]", "value": 20, "unit": "%"},
      {"measurement": "ΔAbs", "setting": "[1]; [11]", "value": 0.33},
      {"measurement": "% bleaching", "setting": "[1]; [12]", "value": 40, "unit": "%"},
      {"measurement": "ΔAbs", "setting": "[1]; [12]", "value": 0.66},
      {"measurement": "% bleaching", "setting": "[1]; [13]", "value": 50, "unit": "%"},
      {"measurement": "ΔAbs", "setting": "[1]; [13]", "value": 0.82},
      {"measurement": "% bleaching", "setting": "[1]; [6]", "value": 6, "unit": "%"},
      {"measurement": "% bleaching", "setting": "[1]; [7]", "value": 2, "unit": "%"},
      {"measurement": "decrease in absorbance at 605 nm after 3 h", "setting": "[4]; pH 6.0, DG26 67 μM", "value": 0.14},
      {"measurement": "decrease in absorbance at 605 nm after 3 h", "setting": "[4]; pH 9.0, DG26 67 μM", "value": 0.37},
      {"measurement": "% bleaching", "setting": "[2]; [8]", "value": 35, "unit": "%"},
      {"measurement": "% bleaching", "setting": "[2]; [14]", "value": 80, "unit": "%"},
      {"measurement": "ΔAbs", "setting": "[2]; [14]", "value": 1.03},
      {"measurement": "decrease in absorbance after 3 h", "setting": "[5]; pH 6.0, RB5 67 μM", "value": 0.32},
      {"measurement": "decrease in absorbance after 3 h", "setting": "[5]; pH 9.0, RB5 67 μM", "value": 0.24},
      {"measurement": "% bleaching", "setting": "[3]; [15]", "value": 65, "unit": "%"},
      {"measurement": "ΔAbs", "setting": "[3]; [15]", "value": 0.92},
      {"measurement": "% bleaching", "setting": "[3]; [9]", "value": 29, "unit": "%"}
    ]}
  ]
}
